Experimental data as given in the NIST ThermoML archive (doi:10.1007/s10765-010-0861-2).

Tests used:
[1] = 101.33 kPa, Liquid; for mass density: Pycnometric method
[2] = xn = mol fraction of the nth substance listed; details: 308.15 K, 101 kPa, Liquid, Frequency=2 MHz

c1ccccc1 [benzene]
[1], 298.15 K
Details | mass density [kg/m3] | speed of sound [m/s]
– | 873.62 | 1298

CCCO [propan-1-ol]
[1], 298.15 K
Details | mass density [kg/m3] | speed of sound [m/s]
– | 799.28 | 1188

Cc1ccccc1 [toluene]
[1], 298.15 K
Details | mass density [kg/m3] | speed of sound [m/s]
– | 862.23 | 1305

c1ccccc1 [benzene] + CCCO
[2]
Details | speed of sound [m/s]
x1 = 0.0852 | 1192
x1 = 0.1733 | 1196
x1 = 0.2644 | 1200
x1 = 0.3059 | 1201
x1 = 0.3586 | 1203
x1 = 0.3995 | 1204
x1 = 0.4561 | 1206
x1 = 0.5274 | 1208
x1 = 0.582 | 1210
x1 = 0.6618 | 1213
x1 = 0.7267 | 1216
x1 = 0.7703 | 1219
x1 = 0.883 | 1233
x1 = 0.9335 | 1242

O=C1CCCN1 [2-pyrrolidinone]
[1]
Details | mass density [kg/m3] | speed of sound [m/s]
298.15 K | 1107.26 | –
308.15 K | – | 1603

Cc1ccccc1 [toluene] + CCCO
[2]
Details | speed of sound [m/s]
x1 = 0.0724 | 1193
x1 = 0.1494 | 1199
x1 = 0.2314 | 1204
x1 = 0.319 | 1209
x1 = 0.3586 | 1211
x1 = 0.4352 | 1216
x1 = 0.5131 | 1220
x1 = 0.5724 | 1224
x1 = 0.6211 | 1227
x1 = 0.6846 | 1231
x1 = 0.7376 | 1235
x1 = 0.7829 | 1239
x1 = 0.8635 | 1247
x1 = 0.9243 | 1253
